# Data as given in patent US20220389515A1, “USE OF BIOMARKERS TO PREDICT CLINICAL SENSITIVITY TO 2-(4-CHLOROPHENYL)-N-((2-(2,6-DIOXOPIPERIDIN-3-YL)-1-OXOISOINDOLIN-5-YL)METHYL)-2,2-DIFLUOROACETAMIDE” (priority 2019, published 2022).
# Tested on: U937, OCI-AML2 and MOLM-13
# Experiment: Cell proliferation of parental, CRBN-ablated and GSPT1-G575N expressing AML cells
# Assay type: cell-based, human
# Protocol: FIG. 2A illustrates the volcano plot of differentially abundant proteins in response to Compound D treatment relative to the DMSO control. KG1 cells were treated with DMSO or 100 nM Compound D for 4 hours and subjected to TMT proteomics analysis. The X-axis denotes the log 2-fold change of Compound D versus the DMSO control for each protein. P-values were corrected for multiple hypothesis testing using the Benjamini-Hoschberg method to arrive at an adjusted-P-value (adj-P, also known as a false discovery rate). The y-axis denotes the −log 10 (adj-P) values indicating statistical significance such that proteins lying above the dotted red line are statistically significant findings with adjusted P-values<0.05. FIG. 2B illustrates the immunoblot analysis of KG1 and U937 cells treated with DMSO or Compound D for 4 hours. Where indicated, cells were pretreated with Bortezomib or MLN4924 for 30 minutes. […]
# For cell proliferation assays, human cancer cell lines cultured in the growth medium recommended by the vendor (as described above) were seeded into black 384-well plates containing DMSO or test compounds. […] After 72 hours, cell proliferation was assessed using the CTG assay according to the manufacturer's instructions. […]
compound,measurement,setting,value
"O=C1CCC(N2Cc3cc(CNC(=O)C(F)(F)c4ccc(Cl)cc4)ccc3C2=O)C(=O)N1 (centres unmarked) [Compound D, 2-(4-chlorophenyl)-N-((2-(2,6-dioxopiperidin-3-yl)-1-oxoisoindolin-5-yl)methyl)-2,2-difluoroacetamide]",anti-proliferative effect after ablation of CRBN,"CRBN knockout U937, OCI-AML2, MOLM-13",completely abolished the anti-proliferative effect
same,antiproliferative response in cells overexpressing GSPT1-G575N,"U937, OCI-AML2, MOLM-13, GSPT1 stabilization",completely inhibited the response to Compound D
